Laboratory results from article PMC5228037, “Discovery and Mechanistic Characterization of Selective Inhibitors of H2S-producing Enzyme: 3-Mercaptopyruvate Sulfurtransferase (3MST) Targeting Active-site Cysteine Persulfide” (Scientific Reports, 2017).
Entries after “also recorded” stand apart in the source; their conditions may differ.

Target: T1, non-persulfurated 3MST (Mus musculus, UniProt Q99J99)
T1 construct: The recombinant full-length wild-type mouse 3MST; made in house; host or cells: E. coli JM109 (DE3)
T1 sequence (Q99J99 1-297): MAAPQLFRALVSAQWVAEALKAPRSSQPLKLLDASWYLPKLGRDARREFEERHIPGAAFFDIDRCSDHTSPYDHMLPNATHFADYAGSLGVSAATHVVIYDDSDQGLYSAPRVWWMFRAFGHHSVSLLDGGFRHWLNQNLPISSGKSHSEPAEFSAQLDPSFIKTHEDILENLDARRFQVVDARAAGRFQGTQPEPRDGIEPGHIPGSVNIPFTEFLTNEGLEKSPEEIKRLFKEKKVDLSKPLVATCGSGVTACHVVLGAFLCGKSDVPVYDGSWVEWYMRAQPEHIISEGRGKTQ
Test: ITC analysis with non-persulfurated 3MST
Format: binding
Conditions: 3MP-untreated 3MST
Procedure: The recombinant full-length wild-type mouse 3MST and mutant m3MST (C65S/C255S/C264S) were expressed as an N-terminal His-tagged protein ([…]-3MST) in E. coli JM109 (DE3). The pET44a(+) vector (Novagen) was used as an expression vector. Cells were grown at 37 °C in LB broth (Miller) or 2 × YT broth containing 0.1 g/L ampicillin to OD600 about 0.5, and then protein expression was induced by adding IPTG (final conc. 0.5 mM (LB), 1 mM (2 × YT)). Cells were cultured overnight at 18–20 °C with shaking and harvested at 4 °C by centrifugation at 9,000 rpm for 5 min. Harvested cells were resuspended in lysis buffer containing 0.1 M HEPES-NaOH pH 8, 0.5 M NaCl, 0% or 10% glycerol, 0.5 mM TCEP, 1 mM PMSF, and 1% EtOH, and disrupted by sonication. Cell lysis solutions were centrifuged at 20,000 rpm for 20 min. […] The proteins were further purified on HisTrap HP (GE Healthcare) by increasing the imidazole concentration in buffer containing 0.02 M HEPES pH 8, 0.15 M NaCl, 10% glycerol, and 0.05 mM TCEP until proteins were eluted. Then the His-tag was removed by GST-fusion HRV 3 C protease digestion. […]

SMILES | Binding to non-persulfurated 3MST (ITC heat release)
NC(=O)c1ccsc1NC(=O)CSc1nc2ccccc2c(=O)[nH]1 [compound 1] | no heat release; also recorded: do not bind
Cc1cc(=O)[nH]c(SCC(=O)c2cccc3ccccc23)n1 [compound 3] | no heat release; also recorded: do not bind
